Assay results from PMC8878748, “Broad-Spectrum Antiviral Activity of the Amphibian Antimicrobial Peptide Temporin L and Its Analogs” (International Journal of Molecular Sciences, 2022).
Where two headings read alike, the source gives them in different places. Where a SMILES comes first, the peptide text is derived from it. [ ]: non-standard residue; d: D form. The star is where a group is joined. X1 = CC(C)CCC[C@@H](C)[C@H]1CC[C@H]2[C@@H]3CC=C4C[C@@H](OC(=O)CCOCCOCCOCCOCCNC(=O)C*)CC[C@]4(C)[C@H]3CC[C@]12C; dHyp = O=C(O)[C@H]1C[C@H](O)CN1; Undecanoyl = CCCCCCCCCCC(=O)*; Nle = CCCC[C@H](N)C(=O)O

Columns and labels:
[1] = test system: MeV; settings: for IC50 / IC90: 2 h
[2] = MTT cytotoxicity assay on Vero cells; type: cell-based; settings: MTT, calculated after 2 h of peptide treatment
[3] = test system: Vero cells; test: MTT cytotoxicity assay on Vero cells; type: cell-based; settings: 2 h of treatment, concentration above 50 μM
[4] = test system: influenza virus (subtype H1N1); settings: influenza virus (subtype, 2 h)
[5] = cited from earlier work
[6] = test system: HCoV-229E; settings: 2 h
[7] = test system: poliovirus Sb-1; type: cell-based
[8] = test system: human erythrocytes; settings: for hemolytic activity: at their antiviral concentrations
Procedure: The hemolytic activity of the peptides was determined using fresh human erythrocytes from healthy donors as reported previously. Briefly, the blood was centrifuged, and the erythrocytes were washed three times with 0.9% NaCl. Peptides were added to the erythrocyte suspension (5% v/v), at a final concentration ranging from 0.1 to 100 μM in a final volume of 100 μL. The samples were incubated with agitation at 37 °C for 60 min. The release of hemoglobin was monitored by measuring the absorbance (Abs) of the supernatant at 540 nm. The control for zero hemolysis (blank) consisted of erythrocytes suspended in the presence of peptide solvent. Hypotonically lysed erythrocytes were used as a standard for 100% hemolysis. The percentage of hemolysis was calculated using the equation: % hemolysis = [(Abssample − Absblank)/(Abstotal lysis − Absblank)] × 100

[9] = test system: peripheral blood mononuclear cells (PBMCs); test: MTT cytotoxicity assay on PBMCs; type: cell-based, human; settings: 2 h and 24 h
Procedure: Vero cells (ATCC CCL-81, Manassas, VA, USA) and Vero/hSLAM cells (ECACC 04091501, Porton Down, UK) and Madin Darby canine kidney (MDCK, CCL-34) were grown in Dulbecco’s Modified Eagle Medium (DMEM) with 4.5 g/L glucose (Microtech, Naples, Italy) supplemented with 100 IU/mL penicillin and 100 μg/mL streptomycin (Himedia, Naples, Italy) and 10% Fetal Bovine Serum (Microtech). PBMCs were isolated as follow. Buffy coats acquired from a healthy anonymous donor were used to isolate PBMCs on a Ficoll-Hypaque density gradient (Sigma-Aldrich) according to standard procedures. Then, PBMCs were grown (5 × 10^6/mL) in RPMI 1640 (Microtech) supplemented with 10% FBS, 60 IU/mL of interleukin-2 (IL-2, Sigma-Aldrich) and 2 µg/mL of phytohemagglutinin (PHA) (Sigma-Aldrich).
Vero cells were seeded in 96-well microtiter tissue culture plates (5 × 10^3 cells /well) and incubated for 24 h at 37 °C in 5% CO2. PBMCs were isolated and then cultured at a concentration of 1 × 10^5 cells/well.
The cytotoxicity for both cell types was evaluated by the MTT (Sigma-Aldrich) assay based on the reduction of the yellowish MTT to the insoluble and dark blue formazan by viable and metabolically active cells. Temporin-based peptides were tested at […] concentrations (0.1, 1, 6.25, 12.5, 25, 50 and 100 µM) after 2 and 24 h. At the end of incubation, 100 μL of an MTT solution (5 mg/mL) was added in each well and incubated for 3 h at 37 °C. The supernatant was discarded and 100 μL of DMSO 100% (Sigma Aldrich) was added (to dissolve the formazan salts) for 10 min with vigorous agitation at room temperature. Cytotoxicity was evaluated by spectrophotometric reading at 540 nm. The viability of Vero cells in each well was presented as a percentage of control cells. All experiments were performed in triplicate, and the means standard deviations are reported. Nonlinear regression analysis was performed using GraphPad Prism software (GraphPad Software, San Diego, CA, USA) to determine the CC50.

[10] = test system: CV-B3; test: Plaque reduction assay, CV-B3; type: cell-based, Enterovirus B (coxsackievirus B3, ATCC VR-688); settings: four experimental settings
[11] = test system: HCoV-OC43; settings: 2 h
[12] = test system: HPIV-3; settings: 2 h
[13] = test system: HSV-1; set-up: method as in PMID 29483113; settings: preincubation of HSV-1 purified virions with 20 µg/mL; cited from earlier work

Row | Molecule | IC50 [1] [µM] | IC90 [1] [µM] | CC50 [2] [µM] | IC50 [4] [µM] | IC90 [4] [µM] | %Helix in DPC ([5]; Table 2) [%] | IC50 [6] [µM] | IC90 [6] [µM] | cytotoxicity on PBMCs [9] | other results
1 | CCCC[C@H](NC(=O)[C@@H](CC(C)C)NC(=O)[C@H](Cc1ccccc1)NC(=O)[C@H](CCCCN)NC(=O)[C@H](CO)NC(=O)[C@H](Cc1ccccc1)NC(=O)[C@H](Cc1c[nH]c2ccccc12)NC(=O)[C@@H]1CCCN1C(=O)[C@@H](NC(=O)[C@@H](N)Cc1ccccc1)C(C)C)C(=O)N[C@@H](CCCNC(=N)N)C(=O)N[C@H](C(=O)N[C@@H](CC(C)C)C(=O)NCC(=O)NCC(=O)N[C@@H](CSCC(=O)NCCOCCOCCOCCOCCC(=O)O[C@H]1CC[C@@]2(C)C(=CC[C@H]3[C@@H]4CC[C@H]([C@H](C)CCCC(C)C)[C@@]4(C)CC[C@@H]32)C1)C(N)=O)[C@@H](C)CC [TL6.2, H-Phe-Val-Pro-Trp-Phe-Ser-Lys-Phe-DLeu-Nle-Arg-Ile-Leu-Gly-Gly-Cys-[PEG4-Cholesterol]-NH2] (H-FVPWFSKF[dL][Nle]RILGGC(X1)-NH2) | 40.9 | > 50 | > 100 | 21.1 | 49.9 |  |  |  |  | toxicity [3]: about 40%
2 | CC[C@H](C)[C@H](NC(=O)[C@H](CCCNC(=N)N)NC(=O)CNC(=O)[C@@H](CC(C)C)NC(=O)[C@H](Cc1ccccc1)NC(=O)[C@H](CCCCN)NC(=O)[C@H](CO)NC(=O)[C@H](Cc1ccccc1)NC(=O)[C@H](Cc1c[nH]c2ccccc12)NC(=O)[C@@H]1CCCN1C(=O)[C@@H](NC(=O)[C@@H](N)Cc1ccccc1)C(C)C)C(=O)N[C@@H](CC(C)C)C(N)=O [TL1, H-Phe-Val-Pro-Trp-Phe-Ser-Lys-Phe-DLeu-Gly-Arg-Ile-Leu-NH2] (H-FVPWFSKF[dL]GRIL-NH2) | > 50 | > 50 | 42.2 | 6.74 | 12.5 | 42 | 7.66 | 30.1 | minor damage | %Helix in DPC ([5]; Table 1): 42%; reduction of infectivity, MeV ([1]; cell pretreatment assay, peptide 25 μM): over 40%; effect on MeV in the virus pretreatment assay ([1]; virus pretreatment assay): not affected; infectivity of poliovirus Sb-1 in the presence of peptide [7]: not altered; hemolytic activity [8]: practically devoid of hemolytic activity; infectivity of CV-B3 in the presence of peptide [10]: not altered
3 | CCCC[C@H](NC(=O)[C@@H](CC(C)C)NC(=O)[C@H](Cc1ccccc1)NC(=O)[C@H](CCCCN)NC(=O)[C@H](CO)NC(=O)[C@H](Cc1ccccc1)NC(=O)[C@H](Cc1c[nH]c2ccccc12)NC(=O)[C@@H]1CCCN1C(=O)[C@@H](NC(=O)[C@H](Cc1ccccc1)NC(=O)[C@@H](N)CSCC(=O)NCCOCCOCCOCCOCCC(=O)O[C@H]1CC[C@@]2(C)C(=CC[C@H]3[C@@H]4CC[C@H]([C@H](C)CCCC(C)C)[C@@]4(C)CC[C@@H]32)C1)C(C)C)C(=O)N[C@@H](CCCNC(=N)N)C(=O)N[C@H](C(=O)N[C@@H](CC(C)C)C(N)=O)[C@@H](C)CC [TL6.3, H-[Cholesterol-PEG4]-Cys-Phe-Val-Pro-Trp-Phe-Ser-Lys-Phe-DLeu-Nle-Arg-Ile-Leu-NH2] (H-C(X1)FVPWFSKF[dL][Nle]RIL-NH2; N-terminus assumed) | 22.3 | 31.1 | > 100 | 2.55 | 5.89 |  |  |  | minor damage | 
4 | CCCC[C@H](NC(=O)[C@@H](CC(C)C)NC(=O)[C@H](Cc1ccccc1)NC(=O)[C@H](CCCCN)NC(=O)[C@H](CO)NC(=O)[C@H](Cc1ccccc1)NC(=O)[C@H](Cc1c[nH]c2ccccc12)NC(=O)[C@@H]1CCCN1C(=O)[C@@H](NC(=O)[C@@H](N)Cc1ccccc1)C(C)C)C(=O)N[C@@H](CCCNC(=N)N)C(=O)N[C@H](C(=O)N[C@@H](CC(C)C)C(N)=O)[C@@H](C)CC [TL6, H-Phe-Val-Pro-Trp-Phe-Ser-Lys-Phe-DLeu-Nle-Arg-Ile-Leu-NH2] (H-FVPWFSKF[dL][Nle]RIL-NH2) | 34.6 | > 50 | 64.5 | 2.66 | 9.34 | 51 | 2.08 | 13.1 | minor damage | IC50 [11]: 0.97 µM; IC90 [11]: 10 µM; IC50 [12]: 32.4 µM; IC90 [12]: > 50 µM
5 | CCCCCCCCCCC(=O)N[C@@H](Cc1ccccc1)C(=O)N[C@H](C(=O)N1CCC[C@H]1C(=O)N[C@@H](Cc1c[nH]c2ccccc12)C(=O)N[C@@H](Cc1ccccc1)C(=O)N[C@@H](CO)C(=O)N[C@@H](CCCCN)C(=O)N[C@@H](Cc1ccccc1)C(=O)N[C@H](CC(C)C)C(=O)N[C@@H](CCCC)C(=O)N[C@@H](CCCNC(=N)N)C(=O)N[C@H](C(=O)N[C@@H](CC(C)C)C(N)=O)[C@@H](C)CC)C(C)C [TL6.5, H-Undecanoic acid-Phe-Val-Pro-Trp-Phe-Ser-Lys-Phe-DLeu-Nle-Arg-Ile-Leu-NH2] (Undecanoyl-FVPWFSKF[dL][Nle]RIL-NH2) | 10 | 29.2 | > 100 | < 0.1 | < 0.1 |  |  |  | minor damage | 
6 | CC[C@H](C)[C@H](NC(=O)[C@H](CCCNC(=N)N)NC(=O)[C@H]1C[C@H](O)CN1C(=O)[C@@H](CC(C)C)NC(=O)[C@H](Cc1ccccc1)NC(=O)[C@H](CCCCN)NC(=O)[C@H](CO)NC(=O)[C@H](Cc1ccccc1)NC(=O)[C@H](Cc1c[nH]c2ccccc12)NC(=O)[C@@H]1CCCN1C(=O)[C@@H](NC(=O)[C@@H](N)Cc1ccccc1)C(C)C)C(=O)N[C@@H](CC(C)C)C(N)=O [TL5, H-Phe-Val-Pro-Trp-Phe-Ser-Lys-Phe-DLeu-DHyp-Arg-Ile-Leu-NH2] (H-FVPWFSKF[dL][dHyp]RIL-NH2) | > 50 | > 50 | > 100 | > 50 | > 50 | 9 | > 50 | > 50 |  | IC50 [11]: > 50 µM; IC90 [11]: > 50 µM; IC50 [12]: > 50 µM; IC90 [12]: > 50 µM
7 | temporin B [TB] |  |  |  |  |  |  |  |  |  | reduction of virus titers [13]: 5 log
8 | H-FVQWFSKFLGRIL-NH2 [TL, H-Phe-Val-Gln-Trp-Phe-Ser-Lys-Phe-Leu-Gly-Arg-Ile-Leu-NH2, reference compound] |  |  | 19.6 |  |  |  |  |  | minor damage | hemolytic activity [8]: practically devoid of hemolytic activity; concentration showing residual hemolytic activity ([8]; red blood cells): ≥ 50 µM
